This test deals with Phenylquinone-Induced Writhing in Mice. In words: Inhibition of Phenylquinone-Induced Writhing in Mice (PQW). The format is in vivo, mice (male CD-1 Charles River). How it is done: Compounds I of the present invention are also useful as analgesic agents due to their ability to alleviate pain in mammals. […] Exptl. Biol. Med., 95, 729 (1957)].
Inhibition of Phenylquinone-Induced Writhing in Mice (PQW)
A 0.125% concentration of phenyl-p-benzoquinone in a 5% aqueous solution of ethyl alcohol is administered to mice (10 mL/kg, ip). This produces a characteristic "writhe" which is defined as an inward rotation of one or more feet with twisting and turning of the trunk, drawing in of the abdominal wall, lordosis, and arching of the back. A total of 28 male CD-1 Charles River mice (18-30 g) are employed for a time-response. Animals receive food and water ad libitum during their stay in the animal quarters prior to testing. Compounds are tested at 20 mg/kg, sc and are prepared with distilled water, and if insoluble one drop of Tween-80, a surfactant, is added. Compounds are administered in a dosage volume of 10 mL/kg.
Twenty mice (five per group) are administered the test compound at various pretreat time (e.g., 15, 30, 45, and 60 min) prior to phenylquinone injection. Control animals (two per group) receive an equal volume of vehicle. After the administration of phenylquinone, the mice are placed separately into 1-L beakers, and 5 min are allowed to elapse. The mice are then observed for a period of 10 min, and the number of writhes is recorded for each animal. The formula for computing percent inhibition is [formula]
The time period with the maximum percent of inhibition is considered the peak time. A dose-response is reserved for interesting compounds or those which inhibit writhing by 70% or more. A dose-response is run in the same manner as a time-response except 10 animals per group are tested at the peak time of drug activity. Fifty animals, divided among four drug groups and one vehicle control group, are employed. The mice are normally given four doses of drug, each twice the amount of the preceding dose. An ED50 is calculated by a computer linear regression analysis.

Turning to `CN1c2ccncc2OCc2cccn21` [5-Methyl-5H,10H-pyrido[3,4-b]pyrrolo[1,2-e][1,4,5]-oxadiazepine], the “% Inhibition of Writhing @ 20 mg/kg, s.c.” value stood at 58%.
Regarding `CN1CCC(C2Oc3cnccc3N(C)n3cccc32)CC1` (stereo not drawn) [5-Methyl-10-(1-methyl-4-piperidinyl)-5H,10H-pyrido[3,4-b]pyrrolo[1,2-e][1,4,5]oxadiazepine], the “% Inhibition of Writhing @ 20 mg/kg, s.c.” value is 47%.
`CC(C)=CCN1CCC2(C)c3cc(O)ccc3CC1C2C` (stereo not drawn) [Pentazocine, reference compound]: the “% Inhibition of Writhing” value (at the dose of 1.3 mg/kg, s.c. (footnote *)) is on record as 50%.

These data come from patent publication US5015637A, “Pyrido[3,4-b]pyrrolo[1,2-e][1,4,5]oxadiazepines” (Hoechst-Roussel Pharmaceutical Inc., priority 1990, dated 1991).
